In US20040147788A1, “Stilbene derivatives and their use as aryl hydrocarbon receptor antagonistic ligands” (priority 2002, published 2004):

Tests used:
ER = target: T1, ER (Homo sapiens, UniProt P03372); experiment: ER-mediated transactivation, ERE-driven Luciferase reporter stable cell line (MCF-7-Luc); as to ER T.A. (transcriptional activity): key: Ago: agonist; N.M.: not measurable; format: cell-based; conditions: for ER TA (transcriptional activity): cis-stilbenes; for ER T.A. (transcriptional activity): trans-stilbenes
T1 construct: stably transfecting MCF-7 cells with the ERE-globin-tk-luc-SV-Neo plasmid; endogenous in cells; host or cells: MCF-7-Luc (MCF-7 stably transfected with ERE-globin-tk-luc-SV-Neo)
T1 sequence (P03372 1-595): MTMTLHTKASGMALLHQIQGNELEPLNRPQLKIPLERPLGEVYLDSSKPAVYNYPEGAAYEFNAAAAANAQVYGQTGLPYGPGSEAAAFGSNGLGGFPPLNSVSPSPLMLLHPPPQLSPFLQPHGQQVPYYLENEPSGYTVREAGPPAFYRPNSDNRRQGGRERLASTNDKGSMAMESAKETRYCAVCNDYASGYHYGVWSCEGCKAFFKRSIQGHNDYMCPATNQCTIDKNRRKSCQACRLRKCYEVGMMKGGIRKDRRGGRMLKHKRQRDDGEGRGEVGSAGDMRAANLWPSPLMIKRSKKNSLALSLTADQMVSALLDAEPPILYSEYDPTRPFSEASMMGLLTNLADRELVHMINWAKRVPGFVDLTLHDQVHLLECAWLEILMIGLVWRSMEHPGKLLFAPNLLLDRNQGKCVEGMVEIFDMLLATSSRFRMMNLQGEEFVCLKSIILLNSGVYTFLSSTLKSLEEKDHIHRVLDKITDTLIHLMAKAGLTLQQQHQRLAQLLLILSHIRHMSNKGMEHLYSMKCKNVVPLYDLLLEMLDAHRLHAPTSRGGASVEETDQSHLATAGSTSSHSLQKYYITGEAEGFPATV
Procedure: The human adenocarcinoma breast cell line MCF-7 was obtained from the American Tissue Culture Collection (Rockville, USA). The cells were established by stably transfecting MCF-7 cells with the ERE-globin-tk-luc-SV-Neo plasmid and thus expressed luciferase in an estrogen dependent manner MCF-7-Luc. […] Cells were incubated at 37° C. in a humidified 5% CO2 incubator. For experiments, cells were grown for 5 days in phenol red-free medium, containing 5% dextran-coated charcoal treated FCS (DCC-FCS). Medium was changed after 2 days. At day 5, cells were treated or not with compounds. Compounds were dissolved in ethanol.
For each condition, 15.103 cells were seeded per well in 12-well plates and treated, as described above, during 16 hours in a final volume of 0.5 mL. At the end of the treatment, cells were washed with PBS and lysed in 150 μl of lysis buffer (Promega, Charbonnieres, France). Luciferase activity was measured using the luciferase assay reagent (Promega), according to the manufacturer's instructions. Protein concentrations were measured using Bradford technique, to normalize the luciferase activity data. For each condition, average luciferase activity was calculated from the data of 3 independent wells.

[1] = target: T2, Estrogen Receptors extracted from MCF-7 cells (Homo sapiens, UniProt P03372); experiment: Ligand binding competition assay (Estrogen Receptor), [3H]Estradiol
T2 construct: Estrogen Receptors extracted from MCF-7 cells; endogenous in cells; host or cells: MCF-7 (ATCC) cytosol
T2 sequence (P03372 1-595): T1 sequence (P03372 1-595)
Procedure: Ligand Binding Competition Assay (Estrogen Receptor)
ER binding experiments were conducted using Estrogen Receptors extracted from MCF-7 cells as previously described (4). Briefly MCF-7 (from ATCC) were grown to 80% confluency in DMEM medium (GiBCO BRL) suplemented with 10% FCS. Cells were then scraped, and washed twice with PBS. After centrifugation for 10 minutes at 1500 rpm, the cells were resuspended in TM buffer (20 mM Tris, HCl pH 7.4; sodium molybdate, 20 mM). Cells were broken by freeze-thaw lysis of the cell pellets in an equal volume of TM buffer. Cytosolic receptors were prepared by a 105.000 g×60 minutes centrifugation at 0° C., and then stored at −80° C. This cytosolic receptor solution was diluted to 60% in TM buffer, and then incubated with the corresponding ligand for 18 hr at 4° C. in a volume of 100 μl with 50 μg of protein and 2 nM of [3H]Estradiol and two concentrations (1 and 10 μM) of unlabeled test ligand. Assays were terminated by loading 65 μl of the incubate on a 1.2 ml Sephadex TM LH-20 column equilibrated with the TM buffer. The flow through was collected and counted for radioactivity in ready safe scintillant (Beckman).

| Compound | ER TA (transcriptional activity) (ER) | ER RBA (relative binding affinity) ([1]; cis-stilbenes) | ER T.A. (transcriptional activity) (ER) | ER RBA (relative binding affinity) ([1]; trans-stilbenes) | affinity for ER [1] |
| --- | --- | --- | --- | --- | --- |
| FC(F)(F)c1ccc(/C=C\c2cc(C(F)(F)F)cc(C(F)(F)F)c2)cc1 [Compound 5e, (Z)-1-(4-trifluoromethylphenyl)-2-(3,5-ditrifluoromethylphenyl)-ethene] | N.M | N.M |  |  |  |
| CCCCOc1ccc(/C=C/c2cc(OC)cc(OC)c2)cc1 [Compound 4h, (E)-1-(4-butoxyphenyl)-2-(3,5-dimethoxyphenyl)-ethene] |  |  | N.M. | N.M |  |
| COc1ccc(/C=C/c2cc(Cl)cc(Cl)c2)cc1 [Compound 4j, (E)-1-(4-methoxyphenyl)-2-(3,5-dichlorophenyl)-ethene] |  |  | N.M. | N.M | without detectable affinity |
| COc1ccc(/C=C\c2cc(F)cc(F)c2)cc1 [Compound 5c, (Z)-1-(4-methoxyphenyl)-2-(3,5-difluorophenyl)-ethene] | N.M | N.M |  |  |  |
| COc1ccc(/C=C/c2cc(F)cc(F)c2)cc1 [Compound 4c, (E)-1-(4-methoxyphenyl)-2-(3,5-difluorophenyl)-ethene] |  |  | N.M | N.M |  |
| CCCCOc1ccc(/C=C\c2cc(OC)cc(OC)c2)cc1 [Compound 5h, (Z)-1-(4-butoxyphenyl)-2-(3,5-dimethoxyphenyl)-ethene] | N.M | N.M |  |  |  |
| Fc1ccc(/C=C\c2cc(F)cc(F)c2)cc1 [Compound 5d, (Z)-1-(4-fluorophenyl)-2-(3,5-difluorophenyl)-ethene] | N.M | N.M |  |  |  |
| CCOc1ccc(/C=C\c2cc(OC)cc(OC)c2)cc1 [Compound 5g, (Z)-1-(4-ethoxyphenyl)-2-(3,5-dimethoxyphenyl)-ethene] | N.M | N.M |  |  |  |
| CCOc1ccc(/C=C/c2cc(OC)cc(OC)c2)cc1 [Compound 4g, (E)-1-(4-ethoxyphenyl)-2-(3,5-dimethoxyphenyl)-ethene] |  |  | N.M. | N.M |  |
| FC(F)(F)c1ccc(/C=C/c2cc(C(F)(F)F)cc(C(F)(F)F)c2)cc1 [Compound 4e, (E)-1-(4-trifluoromethylphenyl)-2-(3,5-ditrifluoromethylphenyl)-ethene] |  |  | N.M | N.M | without detectable affinity |
| Clc1ccc(/C=C\c2cc(Cl)cc(Cl)c2)cc1 [Compound 5b, (Z)-1-(4-chlorophenyl)-2-(3,5-dichlorophenyl)-ethene] | N.M | N.M |  |  |  |
| COc1cc(/C=C\c2ccc(F)cc2)cc(OC)c1 [Compound 5f, (Z)-1-(4-fluorophenyl)-2-(3,5-dimethoxyphenyl)-ethene] | N.M | N.M |  |  |  |
| COc1cc(/C=C/c2ccc(F)cc2)cc(OC)c1 [Compound 4f, (E)-1-(4-fluorophenyl)-2-(3,5-dimethoxyphenyl)-ethene] |  |  | N.M | N.M |  |
| FC(F)(F)c1ccc(/C=C/c2cc(Cl)cc(Cl)c2)cc1 [Compound 4i, (E)-1-(4-trifluoromethylphenyl)-2-(3,5-dichlorophenyl)-ethene] |  |  | N.M. | N.M |  |
| COc1ccc(/C=C\c2cc(Cl)cc(Cl)c2)cc1 [Compound 5j, (Z)-1-(4-methoxyphenyl)-2-(3,5-dichlorophenyl)-ethene] | N.M | N.M |  |  |  |
| FC(F)(F)c1ccc(/C=C\c2cc(Cl)cc(Cl)c2)cc1 [Compound 5i, (Z)-1-(4-trifluoromethylphenyl)-2-(3,5-dichlorophenyl)-ethene] | N.M | N.M |  |  |  |
| Clc1ccc(/C=C/c2cc(Cl)cc(Cl)c2)cc1 [Compound 4b, (E)-1-(4-chlorophenyl)-2-(3,5-dichlorophenyl)-ethene] |  |  | N.M | N.M | without detectable affinity |
| COc1ccc(/C=C\c2cc(OC)cc(OC)c2)cc1 [Compound 5a, (Z)-1-(4-methoxyphenyl)-2-(3,5-dimethoxyphenyl)-ethene] | Ago | 0.06 |  |  |  |
| Fc1ccc(/C=C/c2cc(F)cc(F)c2)cc1 [Compound 4d, (E)-1-(4-fluorophenyl)-2-(3,5-difluorophenyl)-ethene] |  |  | N.M | N.M |  |
| COc1ccc(/C=C/c2cc(OC)cc(OC)c2)cc1 [Compound 4a, (E)-1-(4-methoxyphenyl)-2-(3,5-dimethoxyphenyl)-ethene] |  |  | Ago | 0.03 |  |
